Earlier results in patent publication US5426034A, “Process for the production and use of a stable 6-phosphogluconolactonase” (Boehringer Mannheim GmbH, priority 1990, dated 1995).

Tested on: 6-phosphogluconolactonase (phosphogluconolactonase) from Zymomonas mobilis
Details: Zymomonas enzyme, literature value (Scopes 1985); substrate specificity

In the case of O=C1O[C@H](COP(=O)(O)O)[C@@H](O)[C@H](O)[C@H]1O [6-phosphogluconolactone], the Km is listed as 20 to 30 µM.
